Where “and” joins values, the source holds several entries; their conditions need not be identical. Equal values may be shown once. Where a SMILES comes first, the peptide text is derived from it. [ ]: non-standard residue; d: D form. Hyp = O=C(O)[C@@H]1C[C@@H](O)CN1
Columns and labels:
TIMP-1 = experiment: Example 8 main study Luminex, LPS hPBMCs: TIMP-1; type: cell-based, human
Experimental: (§1) Human PBMCs were pretreated with YY-101, YDE-011, YDE-043 or reference compound; Xiidra® at various concentration (ranging from […] to 500 nM) for 2 h before stimulation. An equal volume of 0.5% DMSO was used as a vehicle control. Then, the cells were treated with LPS at 5 ug/ml, which was selected based on the pilot study. The supernatants from treated cells were harvested at 24 h and placed in a 96 well for Luminex cytokine & chemokine profiling using a Luminex 200 multiplex assay (Luminex; R&D system, USA).
(§2) The main study arm with triplicate wells per group in a 24-well plate: • 1. Blank • 2. PBMC: 0.5% DMSO • 3. PBMC+LPS (5 ug/ml) • 4. PBMC+YY-101 500 nM • 5. PBMC+YY-101 50 nM • 6. PBMC+YY-101 5 nM • 7. PBMC+YY-101 0.5 nM • 8. PBMC+LPS (5 ug/ml)+Xiidra® 500 nM • 9. PBMC+LPS (5 ug/ml)+Xiidra® 50 nM • 10. PBMC+LPS (5 ug/ml)+Xiidra® 5 nM • 11. PBMC+LPS (5 ug/ml)+Xiidra® 0.5 nM • 12. PBMC+LPS (5 ug/ml)+Xiidra® 0.05 nM • 13. PBMC+LPS (5 ug/ml)+Xiidra® 0.005 nM • 14. PBMC+LPS (5 ug/ml)+YY-101 500 nM • 15. PBMC+LPS (5 ug/ml)+YY-101 50 nM • 16. PBMC+LPS (5 ug/ml)+YY-101 5 nM • 17. PBMC+LPS (5 ug/ml)+YY-101 0.5 nM • 18. PBMC+LPS (5 ug/ml)+YY-101 0.05 nM • 19. PBMC+LPS (5 ug/ml)+YY-101 0.005 nM • 20. PBMC+LPS (5 ug/ml)+YDE-011 500 nM • 21. PBMC+LPS (5 ug/ml)+YDE-011 50 nM • 22. PBMC+LPS (5 ug/ml)+YDE-011 5 nM • 23. PBMC+LPS (5 ug/ml)+YDE-011 0.5 nM • 24. PBMC+LPS (5 ug/ml)+YDE-011 0.05 nM • 25. PBMC+LPS (5 ug/ml)+YDE-011 0.005 nM • 26. PBMC+LPS (5 ug/ml)+YDE-043 500 nM • 27. PBMC+LPS (5 ug/ml)+YDE-043 50 nM • 28. PBMC+LPS (5 ug/ml)+YDE-043 5 nM • 29. PBMC+LPS (5 ug/ml)+YDE-043 0.5 nM • 30. PBMC+LPS (5 ug/ml)+YDE-043 0.05 nM • 31. PBMC+LPS (5 ug/ml)+YDE-043 0.005 nM
(§3) Multiplex assay was used to measure 30 cytokines and chemokines. The 1:200 diluted cell supernatant and serial dilution of the standard were dispensed into a 96 well plate at 50 ul/well. Then, the pre-mixed cocktail of antibody-coated magnetic beads was dispensed at 50 ul/well and incubated at room temperature for 2 h in a horizontal orbital microplate shaker at 800±500 rpm. The beads were washed using a magnetic device to prevent loss. The biotin-antibody was dispensed in 50 ul of each well and incubated at room temperature for 1 h in a shaker at 800±500 rpm. After washing, streptavidin-PE was added at 50 ul/well and incubated at room temperature for 30 min in a shaker under the same conditions. Finally, after washing, wash buffer (100 ul/well) was added to the plate and incubated in a shaker for 2 min. The Luminex™ 200 setting were set according to the manufacturer's protocol. The data was calculated with a standard five-parameter logistic nonlinear regression analysis of the data (xPonent software 4.2, USA). Results were presented as concentration (ng/ml or pg/ml).

Leptin = experiment: Example 8 main study Luminex, LPS hPBMCs: Leptin; type: cell-based, human
Experimental: as §1, §2, §3

[1] = PBMC + LPS(5 ug/ml), test article 0.005 nM
[2] = PBMC + LPS(5 ug/ml), test article 0.05 nM
[3] = PBMC + LPS(5 ug/ml), test article 0.5 nM
[4] = PBMC + LPS(5 ug/ml), test article 5 nM
[5] = PBMC + LPS(5 ug/ml), test article 50 nM
[6] = PBMC + LPS(5 ug/ml), test article 500 nM
[7] = PBMC without LPS, test article 0.5 nM
[8] = PBMC without LPS, test article 5 nM
[9] = PBMC without LPS, test article 0.05 uM
[10] = PBMC without LPS, test article 50 nM
[11] = PBMC without LPS, test article 500 nM

**Q.** Which results are given for `CC(C)C[C@H](NC(=O)CNC(=O)[C@H](CC(=O)O)NC(=O)[C@H](CCC(N)=O)NC(=O)CNC(=O)[C@@H]1C[C@@H](O)CN1)C(=O)N[C@@H](C)C(=O)NCC(=O)N1CCC[C@H]1C(=O)N[C@@H](CCCCN)C(=O)O` [YY-101] (H-[Hyp]GQDGLAGPK-OH; N-terminus and C-terminus assumed)?
**A.** TIMP-1 Concentration (pg/ml), Mean (TIMP-1; [1]): 3912.8 pg/mL; TIMP-1 Concentration (pg/ml), single replicates (TIMP-1; [1]): 4259.2 pg/ml (2×) and 3220.1 pg/ml; TIMP-1 Concentration (pg/ml), Mean (TIMP-1; [2]): 3820.5 pg/mL; TIMP-1 Concentration (pg/ml), single replicates (TIMP-1; [2]): 3935.4 pg/ml (2×) and 3590.9 pg/ml; TIMP-1 Concentration (pg/ml), Mean (TIMP-1; [3]): 4128.5 pg/mL; TIMP-1 Concentration (pg/ml), single replicates (TIMP-1; [3]): 3935.4 pg/mL and 3590.9 pg/mL and 4859.3 pg/mL; TIMP-1 Concentration (pg/ml), Mean (TIMP-1; [4]): 3696.9 pg/mL; TIMP-1 Concentration (pg/ml), single replicates (TIMP-1; [4]): 3935.4 pg/ml (2×) and 3220.1 pg/ml; TIMP-1 Concentration (pg/ml), Mean (TIMP-1; [5]): 3696.9 pg/mL; TIMP-1 Concentration (pg/ml), single replicates (TIMP-1; [5]): 3935.4 pg/ml (2×) and 3220.1 pg/ml; TIMP-1 Concentration (pg/ml), Mean (TIMP-1; [6]): 3696.9 pg/mL; TIMP-1 Concentration (pg/ml), single replicates (TIMP-1; [6]): 3935.4 pg/ml (2×) and 3220.1 pg/ml; TIMP-1 Concentration (pg/ml), Mean (TIMP-1; [7]): 6580.9 pg/mL; TIMP-1 Concentration (pg/ml), single replicates (TIMP-1; [7]): 6173.1 pg/mL and 6988.8 pg/mL; TIMP-1 Concentration (pg/ml), Mean (TIMP-1; [8]): 6228.8 pg/mL; TIMP-1 Concentration (pg/ml), single replicates (TIMP-1; [8]): 6531.0 pg/mL and 5926.6 pg/mL; TIMP-1 Concentration (pg/ml), Mean (TIMP-1; [9]): 8751.3 pg/mL; TIMP-1 Concentration (pg/ml), single replicates (TIMP-1; [9]): 10402.5 pg/mL and 7100.2 pg/mL; TIMP-1 Concentration (pg/ml), Mean (TIMP-1; [10]): 6928.9 pg/mL; TIMP-1 Concentration (pg/ml), single replicates (TIMP-1; [10]): 7210.4 pg/mL and 6647.4 pg/mL; TIMP-1 Concentration (pg/ml), Mean (TIMP-1; [11]): 7209.9 pg/mL; TIMP-1 Concentration (pg/ml), single replicates (TIMP-1; [11]): 7100.2 pg/mL and 7319.6 pg/mL; Leptin Concentration (pg/ml), Mean (Leptin; [1]): 16686.7 pg/mL; Leptin Concentration (pg/ml), single replicates (Leptin; [1]): 19789.4 pg/ml (2×) and 10481.4 pg/ml; Leptin Concentration (pg/ml), Mean (Leptin; [2]): 16746.9 pg/mL; Leptin Concentration (pg/ml), single replicates (Leptin; [2]): 17222.7 pg/ml (2×) and 15795.3 pg/ml; Leptin Concentration (pg/ml), Mean (Leptin; [3]): 16226.8 pg/mL; Leptin Concentration (pg/ml), single replicates (Leptin; [3]): 17222.7 pg/ml (2×) and 14234.9 pg/ml; Leptin Concentration (pg/ml), Mean (Leptin; [4]): 21157.1 pg/mL; Leptin Concentration (pg/ml), single replicates (Leptin; [4]): 22079.2 pg/mL and 17222.7 pg/mL and 24169.3 pg/mL; Leptin Concentration (pg/ml), Mean (Leptin; [5]): 15230.8 pg/mL; Leptin Concentration (pg/ml), single replicates (Leptin; [5]): 17222.7 pg/ml and 14234.9 pg/ml (2×); Leptin Concentration (pg/ml), Mean (Leptin; [6]): 18933.8 pg/mL; Leptin Concentration (pg/ml), single replicates (Leptin; [6]): 19789.4 pg/ml (2×) and 17222.7 pg/ml; Leptin Concentration (pg/ml), Mean (Leptin; [7]): 15728.8 pg/mL; Leptin Concentration (pg/ml), single replicates (Leptin; [7]): 14234.9 pg/mL and 17222.7 pg/mL; Leptin Concentration (pg/ml), Mean (Leptin; [8]): 19092.9 pg/mL; Leptin Concentration (pg/ml), single replicates (Leptin; [8]): 17222.7 pg/mL and 20963.1 pg/mL; Leptin Concentration (pg/ml), Mean (Leptin; [9]): 18506.0 pg/mL; Leptin Concentration (pg/ml), single replicates (Leptin; [9]): 19789.4 pg/mL and 17222.7 pg/mL; Leptin Concentration (pg/ml), Mean (Leptin; [10]): 24092.8 pg/mL; Leptin Concentration (pg/ml), single replicates (Leptin; [10]): 26106.3 pg/mL and 22079.2 pg/mL; Leptin Concentration (pg/ml), Mean (Leptin; [11]): 20376.3 pg/mL; Leptin Concentration (pg/ml), single replicates (Leptin; [11]): 19789.4 pg/mL and 20963.1 pg/mL
